The values below are quoted from earlier work in patent publication US20230226006A1, “Compositions for the Treatment of Dry Eye and Methods of Use Thereof” (The Schepens Eye Research Institute, Inc., priority 2017, published 2023).

SMILES strings stand for the structures.

In the case of `C=CCN=C=S` [Allyl isothiocyanate, 3-Isothiocyanato-1-propene], the “Solubility in organic solvents” value (organic solvents) is “well soluble”. The Solubility in water entry (water) is recorded as “slightly soluble”.
